The text below walks through data of BindingDB's records for doi:10.7270/Q2M32T6M (Vanderbilt Screening Center for GPCRs, Ion Channels and …, 2009).

Structures are written as SMILES.

The first test addresses T1, Solute carrier family 12 member 5 (Homo sapiens, UniProt Q9H2X9).
T1 sequence (Q9H2X9 whole entry): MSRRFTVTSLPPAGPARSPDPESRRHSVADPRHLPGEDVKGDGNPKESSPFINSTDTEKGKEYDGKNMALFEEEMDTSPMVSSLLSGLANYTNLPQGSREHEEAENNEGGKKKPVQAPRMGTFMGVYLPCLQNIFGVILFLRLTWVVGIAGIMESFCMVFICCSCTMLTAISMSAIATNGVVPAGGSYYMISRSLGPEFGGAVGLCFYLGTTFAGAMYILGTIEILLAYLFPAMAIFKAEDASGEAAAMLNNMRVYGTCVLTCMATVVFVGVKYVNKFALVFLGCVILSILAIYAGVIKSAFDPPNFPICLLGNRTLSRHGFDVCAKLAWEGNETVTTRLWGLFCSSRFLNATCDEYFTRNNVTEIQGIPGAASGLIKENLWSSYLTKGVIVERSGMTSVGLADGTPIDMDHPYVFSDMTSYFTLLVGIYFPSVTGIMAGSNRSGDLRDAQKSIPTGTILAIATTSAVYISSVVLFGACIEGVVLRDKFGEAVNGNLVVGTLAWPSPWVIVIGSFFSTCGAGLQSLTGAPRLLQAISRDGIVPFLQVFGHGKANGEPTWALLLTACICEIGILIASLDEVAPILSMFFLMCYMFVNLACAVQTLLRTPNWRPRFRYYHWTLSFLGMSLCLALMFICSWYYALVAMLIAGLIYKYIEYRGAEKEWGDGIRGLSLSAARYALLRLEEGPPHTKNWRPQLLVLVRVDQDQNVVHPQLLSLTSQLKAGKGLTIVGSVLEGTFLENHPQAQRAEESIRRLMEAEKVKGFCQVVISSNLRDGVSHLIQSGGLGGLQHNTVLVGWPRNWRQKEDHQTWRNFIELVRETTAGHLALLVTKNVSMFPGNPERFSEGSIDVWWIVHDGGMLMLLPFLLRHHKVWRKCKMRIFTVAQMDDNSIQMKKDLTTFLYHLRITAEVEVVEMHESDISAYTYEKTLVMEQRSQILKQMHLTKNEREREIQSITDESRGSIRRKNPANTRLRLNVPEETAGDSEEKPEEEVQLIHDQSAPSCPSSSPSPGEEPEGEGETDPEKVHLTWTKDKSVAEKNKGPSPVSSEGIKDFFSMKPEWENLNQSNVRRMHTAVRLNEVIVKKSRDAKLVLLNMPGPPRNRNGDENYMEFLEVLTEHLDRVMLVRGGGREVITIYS
Briefly: KCC2 modulator potency by thallium flux, dose response, cell-based, HEK293 KCC2, FluoZin-2 fluorescence (AID 1736).
Settings: not given
`Sc1nnc(CCc2ccc(Cl)cc2)o1` [5-[2-(4-chlorophenyl)ethyl]-1,3,4-oxadiazole-2-thiol]: the EC50 is 1.57 µM.

`Cc1[nH]c2ccccc2c1Cc1n[nH]c(=S)n1C`: a half-maximal response (EC50) required 31.5 µM.

`CC1Cc2ccccc2N1C(=O)/C=C/c1cccc(F)c1` (stereo not drawn) [(E)-3-(3-fluorophenyl)-1-(2-methyl-2,3-dihydroindol-1-yl)-2-propen-1-one]: the midpoint of the response, the EC50, lay at 192 µM.

Turning to `Cc1nc(SCc2ccc(F)cc2)c([N+](=O)[O-])[nH]1` [SMR000271028], the EC50 was found to be 4.66 µM.

`Sc1nnc(C2(c3ccccc3)CCCC2)o1` [5-(1-phenylcyclopentyl)-3H-1,3,4-oxadiazole-2-thione] showed an EC50 of 1.31 µM.

In turn, `Cc1ccc(C)c(C(=O)NC(C)CCc2ccccc2)c1` (stereo not drawn) [2,5-dimethyl-N-(1-methyl-3-phenyl-propyl)benzamide] showed an EC50 of 7.74 µM.

As for `N#Cc1nc(-c2cccs2)oc1N1CCN(Cc2ccccc2)CC1` [5-(4-benzyl-1-piperazinyl)-2-(2-thienyl)-1,3-oxazole-4-carbonitrile], the EC50 was found to be 4.16 µM.

Molecule `O=C(Nc1cccnc1)c1ccc(COc2ccccc2Br)o1` [5-[(2-bromanylphenoxy)methyl]-N-pyridin-3-yl-furan-2-carboxamide] showed an EC50 of 2.34 µM.

For `Cn1c(CSc2nc3ccccc3s2)nc2ccccc21` [2-(1-Methyl-1H-benzoimidazol-2-ylmethylsulfanyl)-benzothiazole], the EC50 is 439 µM.

In turn, `O=C(CSc1nnc(Cc2ccccc2)o1)c1ccc(F)cc1` [1-(4-fluorophenyl)-2-[[5-(phenylmethyl)-1,3,4-oxadiazol-2-yl]sulfanyl]ethanone] came in with an EC50 of 2.86 µM.

In turn, `Cc1cccc(OCCc2nnc(N)s2)c1C` [5-[2-(2,3-Dimethyl-phenoxy)-ethyl]-[1,3,4]thiadiazol-2-ylamine] registered an EC50 of 6.16 µM.

On to `O=C(NC(=S)Nc1nc(-c2cccc([N+](=O)[O-])c2)cs1)c1ccccc1Cl` [2-chloranyl-N-[[4-(3-nitrophenyl)-1,3-thiazol-2-yl]carbamothioyl]benzamide], for which the EC50 turned out to be 7.48 µM.

In the case of `O=C(O)CCN(Cc1ccccc1)S(=O)(=O)c1c(Cl)cccc1Cl` [3-[(2,6-dichlorophenyl)sulfonyl-(phenylmethyl)amino]propanoic acid], the EC50 was 86000 µM.

The molecule `CN(CC(=O)N1CCN(Cc2ccccc2)CC1)S(=O)(=O)c1cccc2nsnc12` [MLS000674627] registered an EC50 of 0.27 µM.

On to `N#Cc1nc(Cc2cccc3ccccc23)oc1N1CCOCC1` [5-(4-morpholinyl)-2-(1-naphthalenylmethyl)-4-oxazolecarbonitrile], for which the EC50 was determined as 2.19 µM.

`Cn1c(C(=O)NCCCN2CCN(c3ccccc3F)CC2)cc2c(=O)n(C)c3ccccc3c21` [MLS000118127]: the EC50 came out at 4.93 µM.

Turning to `Cc1noc(/C=C/c2ccco2)c1S(=O)(=O)N1CCC(C(=O)N2CCc3ccccc3C2)CC1` [2-{[1-({5-[(E)-2-(2-furyl)vinyl]-3-methylisoxazol-4-yl}sulfonyl)piperidin-4-yl]carbonyl}-1,2,3,4-tetrahydroisoquinoline], the EC50 was found to be 3.86 µM.

Consider `O=C(c1ccc(N2CCCCCC2)c([N+](=O)[O-])c1)N1CCc2ccccc21` [1-(4-azepan-1-yl-3-nitrobenzoyl)indoline], for which the EC50 turned out to be 7.56 µM.

With `Cc1n[nH]c(O)c1C(c1ccc(-c2ccc(F)cc2)o1)c1c(C)n[nH]c1O` [4-[[5-(4-fluorophenyl)furan-2-yl]-(3-methyl-5-oxo-1,2-dihydropyrazol-4-yl)methyl]-5-methyl-1,2-dihydropyrazol-3-one], the EC50 worked out at 9.41 µM.

Molecule `O=C(NCc1ccc2c(c1)OCO2)c1ccc(COc2cc(Cl)ccc2Cl)o1` [5-[(2,5-dichlorophenoxy)methyl]-N-piperonyl-2-furamide] registered an EC50 of 7.14 µM.

The molecule `O=C(Nc1ccc(Cc2ccncc2)cc1)c1cccc([N+](=O)[O-])c1` [3-Nitro-N-(4-pyridin-4-ylmethyl-phenyl)-benzamide] showed an EC50 of 4.96 µM.

Regarding `CC1Cc2ccccc2N1C(=O)CN(C)S(=O)(=O)c1cccc2cccnc12` (stereo not drawn) [MLS000523063], the EC50 is 17.5 µM.

Molecule `CCCn1c(N)c(C(=O)CSc2nnc(Cc3ccccc3)o2)c(=O)n(C)c1=O` [6-amino-3-methyl-5-[1-oxo-2-[[5-(phenylmethyl)-1,3,4-oxadiazol-2-yl]thio]ethyl]-1-propylpyrimidine-2,4-dione] registered an EC50 of 0.00466 µM.

The molecule `Cc1nn(-c2ccc(F)cc2)c(C)c1NS(=O)(=O)c1ccc2ccccc2c1` [MLS000565745] yielded an EC50 of 2.64 µM.

As to `Fc1ccc(CSc2nncn2NC/C=C/c2ccccc2)cc1` [3-[(4-fluorobenzyl)thio]-N-(3-phenyl-2-propen-1-yl)-4H-1,2,4-triazol-4-amine], a half-maximal response (EC50) required 4.5 µM.

`O=C(O)CC/C(=C\c1ccccc1[N+](=O)[O-])c1nc2ccccc2s1` [(E)-4-(1,3-benzothiazol-2-yl)-5-(2-nitrophenyl)-4-pentenoic acid]: the EC50 was 350 µM.

With `O=C(NCCCCc1ccccc1)C1CC(c2ccccc2[N+](=O)[O-])=NO1` (stereo not drawn) [3-(2-nitrophenyl)-N-(4-phenylbutyl)-2-isoxazoline-5-carboxamide], the EC50 turned out to be 5.52 µM.

The molecule `COc1ccc(S(=O)(=O)N(C)CC(=O)N2CCN(Cc3ccccc3)CC2)cc1C` [4-methoxy-N,3-dimethyl-N-[2-oxidanylidene-2-[4-(phenylmethyl)piperazin-1-yl]ethyl]benzenesulfonamide] returned an EC50 of 2.26 µM.

`O=C(Cn1cnc2c(nnn2Cc2ccc(F)cc2)c1=O)NCc1ccc2c(c1)OCO2` [2-[3-(4-fluorobenzyl)-7-keto-triazolo[4,5-d]pyrimidin-6-yl]-N-piperonyl-acetamide] showed an EC50 of 1.48 µM.

As to `Cc1ccc(NC(=O)CSc2ccc(-c3ccco3)nn2)cc1` [2-[6-(furan-2-yl)pyridazin-3-yl]sulfanyl-N-(4-methylphenyl)acetamide], the EC50 worked out at 4.55 µM.

`O=C(NNc1nc(-c2ccc(F)cc2)cs1)c1ccccc1` [MLS000763429] came in with a 50% effective concentration (EC50) of 0.928 µM.

In turn, `O=C(CSc1ncccc1-c1nc2ccccc2[nH]1)N1CCN(c2ccccc2F)CC1` [MLS000033700] displayed an EC50 of 26.5 µM.

`O=C(COC(=O)c1cc([N+](=O)[O-])ccc1NCc1ccccc1)NC1CCCCC1` [2-(benzylamino)-5-nitro-benzoic acid [2-(cyclohexylamino)-2-keto-ethyl] ester]: the EC50 was found to be 0.481 µM.

The test is the same for the next values; noted with them: inactive by the depositor's call.
As to `CC(C)c1ccc(NC(=O)c2cnn(-c3ccccc3)c2NC(=O)c2ccco2)cc1` [5-(2-furoylamino)-N-p-cumenyl-1-phenyl-pyrazole-4-carboxamide], the EC50 was determined as 12.1 µM.

With `CNC(=O)C(=O)Nc1nc(C23CC4CC(CC(C4)C2)C3)cs1` [N'-[4-(1-adamantyl)-1,3-thiazol-2-yl]-N-methyl-ethanediamide], the EC50 was 22.6 µM.

`Cc1nn(-c2ccccc2)c2sc(C(=O)N(Cc3ccco3)C(C)C(=O)NC(C)(C)C)cc12` (stereo not drawn) [3-Methyl-1-phenyl-1H-thieno[2,3-c]pyrazole-5-carboxylic acid (1-tert-butylcarbamoyl-ethyl)-furan-2-ylmethyl-amide] showed an EC50 of 33.2 µM.

`c1coc(CNc2nc3nonc3nc2NCc2ccco2)c1` [2-furfuryl-[5-(2-furfurylamino)furazano[3,4-b]pyrazin-6-yl]amine] registered an EC50 of 43.7 µM.

`S=c1nc(-c2ccc3c(c2)CCO3)cc[nH]1`: the EC50 was 16.7 µM.

Molecule `N#C/C(=C\c1cn(-c2ccccc2)nc1-c1cccnc1)c1nnc2n1CCCCC2` [(E)-3-(1-phenyl-3-pyridin-3-yl-pyrazol-4-yl)-2-(6,7,8,9-tetrahydro-5H-[1,2,4]triazolo[4,3-a]azepin-3-yl)prop-2-enenitrile] gave an EC50 of 1.45 µM.

In turn, `CC(C)CNC(=O)c1ccc(COc2ccc(Cl)cc2Cl)o1` [5-[(2,4-dichlorophenoxy)methyl]-N-(2-methylpropyl)-2-furancarboxamide] registered an EC50 of 10.5 µM.

For `COc1ccc(-c2nnc(-c3ccc(OCC(C)C)cc3)o2)cc1` [2-(4-Isobutoxy-phenyl)-5-(4-methoxy-phenyl)-[1,3,4]oxadiazole], the midpoint of the response, the EC50, lay at 0.00127 µM.

In the case of `CCc1ccc(-n2c(SCC(=O)c3ccc4c(c3)NC(=O)CO4)nc3ccccc3c2=O)cc1` [6-[2-[3-(4-ethylphenyl)-4-oxidanylidene-quinazolin-2-yl]sulfanylethanoyl]-4H-1,4-benzoxazin-3-one], the EC50 stood at 51.8 µM.

`O=C(Nc1cc(S(=O)(=O)N2CCCCC2)ccc1Cl)c1ccccc1NS(=O)(=O)c1ccc(F)cc1` [MLS000707627] came in with an EC50 of 101 µM.
